Reference: ChEMBL document CHEMBL1201862, “PubChem BioAssay data set” (2004)
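96-well plates; 48 h exposure; 5 concentrations. Endpoints by linear interpolation between flanking doses. Not reached: highest tested concentration assigned. The concentration for 50% growth inhibition is given as GI50.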 Active and inactive are the calls of the source. Cut-off read from the data, not from the text of the source: active = GI50 up to about 1.1 µM and inactive = higher.

Tests used:
Experiment in all cases: NCI tumour cell line growth inhibition, 48 h
KM12 = test system: KM12
DMS-273 = test system: DMS-273
HL-60 = test system: HL-60
IGROV-1 = test system: IGROV-1
CAKI-1 = test system: CAKI-1
SN12C = test system: SN12C
NCI-H522 = test system: NCI-H522
RPMI-8226 = test system: RPMI-8226
TK-10 = test system: TK-10
COLO 205 = test system: COLO 205
SF-268 = test system: SF-268
OVCAR-3 = test system: OVCAR-3
HCT-15 = test system: HCT-15
RXF 393 = test system: RXF 393
SR = test system: SR
SW-620 = test system: SW-620
SK-MEL-5 = test system: SK-MEL-5
DU-145 = test system: DU-145
Hs-578T = test system: Hs-578T
MDA-N = test system: MDA-N

| Compound | GI50 (KM12) | GI50 (DMS-273) | GI50 (HL-60) | GI50 (IGROV-1) | GI50 (CAKI-1) | GI50 (SN12C) | GI50 (NCI-H522) | GI50 (RPMI-8226) | GI50 (TK-10) | GI50 (COLO 205) | GI50 (SF-268) | GI50 (OVCAR-3) | GI50 (HCT-15) [µM] | GI50 (RXF 393) | GI50 (SR) | GI50 (SW-620) | GI50 (SK-MEL-5) | GI50 (DU-145) | GI50 (Hs-578T) | GI50 (MDA-N) |
| --- | --- | --- | --- | --- | --- | --- | --- | --- | --- | --- | --- | --- | --- | --- | --- | --- | --- | --- | --- | --- |
| O=C(O)C(CS)Nc1c2ccccc2nc2ccccc12 (centres undefined) | 59.6 µM (inactive) | 34.6 µM (inactive) | 80.4 µM (inactive) | > 100 µM (inactive) | 44.7 µM (inactive) | 51.1 µM (inactive) | 29.1 µM (inactive) | 48.2 µM (inactive) | 35.6 µM (inactive) | 37.7 µM (inactive) | > 100 µM (inactive) | 49.9 µM (inactive) | 51.3 | > 100 µM (inactive) | 36.3 µM (inactive) | 54.1 µM (inactive) | – | – | – | – |
| CS(=O)(=O)C1S(=O)(=O)OCCOS1(=O)=O | > 100 µM (inactive) | > 100 µM (inactive) | > 100 µM (inactive) | > 100 µM (inactive) | > 100 µM (inactive) | > 100 µM (inactive) | > 100 µM (inactive) | > 100 µM (inactive) | > 100 µM (inactive) | > 100 µM (inactive) | > 100 µM (inactive) | > 100 µM (inactive) | – | > 100 µM (inactive) | > 100 µM (inactive) | > 100 µM (inactive) | > 100 µM (inactive) | – | – | – |
| COc1ccc(Br)c(C(=O)N2CCc3ccccc32)c1N | 34.2 µM (inactive) | 15.7 µM (inactive) | 40.6 µM (inactive) | 70.5 µM (inactive) | – | 41.8 µM (inactive) | 16.7 µM (inactive) | 40.6 µM (inactive) | 42.9 µM (inactive) | 66.1 µM (inactive) | – | 27.5 µM (inactive) | 29.2 | 55.2 µM (inactive) | 20.3 µM (inactive) | 49.1 µM (inactive) | 40.2 µM (inactive) | – | – | – |
| COc1ccc2c3ccc4c(c3n(C)c2c1)C(=O)C=CC4=O | – | 34.7 µM (inactive) | 3.84 µM (inactive) | > 100 µM (inactive) | – | 40.4 µM (inactive) | 10.4 µM (inactive) | 6.41 µM (inactive) | – | 18.8 µM (inactive) | 44.3 µM (inactive) | – | 42.6 | 18.4 µM (inactive) | 2.84 µM (inactive) | 16.4 µM (inactive) | > 100 µM (inactive) | – | – | – |
| Cc1cn(C2CC(O)C(COC(=O)c3ccccc3)O2)c(=O)[nH]c1=O (centres undefined) | > 100 µM (inactive) | > 100 µM (inactive) | > 100 µM (inactive) | > 100 µM (inactive) | > 100 µM (inactive) | > 100 µM (inactive) | > 100 µM (inactive) | > 100 µM (inactive) | > 100 µM (inactive) | > 100 µM (inactive) | > 10 µM (inactive) | > 100 µM (inactive) | > 100 | > 100 µM (inactive) | > 100 µM (inactive) | > 100 µM (inactive) | > 100 µM (inactive) | – | – | – |
| COc1ccc(/C=C/COC(C)=O)cc1OC | > 100 µM (inactive) | > 100 µM (inactive) | – | > 100 µM (inactive) | > 100 µM (inactive) | > 100 µM (inactive) | > 100 µM (inactive) | > 100 µM (inactive) | > 100 µM (inactive) | > 100 µM (inactive) | > 100 µM (inactive) | > 100 µM (inactive) | > 100 | > 100 µM (inactive) | > 100 µM (inactive) | > 100 µM (inactive) | > 100 µM (inactive) | – | – | – |
| COc1ccc2c(c1)CCc1c(C(C)=O)c3ccccc3n1C2 | > 100 µM (inactive) | 33 µM (inactive) | 11.5 µM (inactive) | 19.3 µM (inactive) | 24 µM (inactive) | 49.5 µM (inactive) | 19.9 µM (inactive) | – | 60.4 µM (inactive) | > 100 µM (inactive) | 29.1 µM (inactive) | 12.1 µM (inactive) | – | 22.8 µM (inactive) | 28.7 µM (inactive) | > 100 µM (inactive) | 6.19 µM (inactive) | – | – | – |
| O=C(/C=C/c1ccccc1O)C(c1ccccc1)c1ccccc1 | 98.9 µM (inactive) | > 100 µM (inactive) | – | > 100 µM (inactive) | > 100 µM (inactive) | > 100 µM (inactive) | 65.6 µM (inactive) | 72.6 µM (inactive) | > 100 µM (inactive) | 39.3 µM (inactive) | > 100 µM (inactive) | > 100 µM (inactive) | > 100 | > 100 µM (inactive) | > 100 µM (inactive) | 13.1 µM (inactive) | > 100 µM (inactive) | – | – | – |
| CC(C)=CCCC1(C)C=Cc2c(c(C)cc3c2[nH]c2cc(O)ccc23)O1 (centres undefined) | > 25 µM (inactive) | > 25 µM (inactive) | 22.5 µM (inactive) | > 25 µM (inactive) | – | > 25 µM (inactive) | 6.82 µM (inactive) | > 25 µM (inactive) | > 25 µM (inactive) | > 25 µM (inactive) | > 25 µM (inactive) | > 25 µM (inactive) | > 25 | > 25 µM (inactive) | 24 µM (inactive) | > 25 µM (inactive) | > 25 µM (inactive) | – | – | – |
| C#CCn1c(=O)[nH]c(=O)c2cccnc21 | > 100 µM (inactive) | > 100 µM (inactive) | > 100 µM (inactive) | – | > 100 µM (inactive) | > 100 µM (inactive) | > 100 µM (inactive) | > 100 µM (inactive) | > 100 µM (inactive) | > 100 µM (inactive) | > 100 µM (inactive) | – | > 100 | > 100 µM (inactive) | > 100 µM (inactive) | > 100 µM (inactive) | > 100 µM (inactive) | – | – | – |
| Cn1c(=O)c2nc3sc4ccccc4c(=N)n3c2n(C)c1=O | > 100 µM (inactive) | > 100 µM (inactive) | > 100 µM (inactive) | > 100 µM (inactive) | > 100 µM (inactive) | > 100 µM (inactive) | > 100 µM (inactive) | – | > 100 µM (inactive) | > 100 µM (inactive) | > 100 µM (inactive) | – | – | > 100 µM (inactive) | > 100 µM (inactive) | > 100 µM (inactive) | > 100 µM (inactive) | – | – | – |
| CCOC(=O)C(C)(C)Oc1ccc(/C=C/C(=O)c2ccc(Cl)cc2)cc1 | – | 16.7 µM (inactive) | 24.5 µM (inactive) | 17.3 µM (inactive) | – | 19.1 µM (inactive) | – | 10.9 µM (inactive) | 70.8 µM (inactive) | 24 µM (inactive) | 19.1 µM (inactive) | 16.3 µM (inactive) | 17.2 | 15.3 µM (inactive) | 27.3 µM (inactive) | 13.9 µM (inactive) | 14.9 µM (inactive) | – | – | – |
| CC#CCC1CCC(OCC)=CC1=O (centres undefined) | > 100 µM (inactive) | > 100 µM (inactive) | > 100 µM (inactive) | > 100 µM (inactive) | > 100 µM (inactive) | > 100 µM (inactive) | > 100 µM (inactive) | > 100 µM (inactive) | > 100 µM (inactive) | > 100 µM (inactive) | > 100 µM (inactive) | > 100 µM (inactive) | > 100 | > 100 µM (inactive) | > 100 µM (inactive) | > 100 µM (inactive) | > 100 µM (inactive) | – | – | – |
| O=P1(O)c2ccccc2Nc2cc(C(F)(F)F)ccc21 | > 100 µM (inactive) | > 100 µM (inactive) | > 100 µM (inactive) | > 100 µM (inactive) | > 100 µM (inactive) | > 100 µM (inactive) | > 100 µM (inactive) | > 100 µM (inactive) | > 100 µM (inactive) | > 100 µM (inactive) | > 100 µM (inactive) | > 100 µM (inactive) | > 100 | > 100 µM (inactive) | > 100 µM (inactive) | > 100 µM (inactive) | > 100 µM (inactive) | > 100 µM (inactive) | > 100 µM (inactive) | > 100 µM (inactive) |
| c1ccc2c(c1)C1=NCCN1c1ccccc1-2 | 2.96 µM (inactive) | 1.74 µM (inactive) | 2.42 µM (inactive) | 3.44 µM (inactive) | 2.6 µM (inactive) | 2.45 µM (inactive) | 1.45 µM (inactive) | 2.32 µM (inactive) | 2.49 µM (inactive) | 1.38 µM (inactive) | 3.46 µM (inactive) | 2.95 µM (inactive) | 3.1 | 1.56 µM (inactive) | 0.502 µM (active) | 2.37 µM (inactive) | 2.49 µM (inactive) | – | – | – |
| CCOc1ccccc1NC(=O)CCC(=O)NN | > 100 µM (inactive) | > 100 µM (inactive) | > 100 µM (inactive) | > 100 µM (inactive) | > 100 µM (inactive) | > 100 µM (inactive) | > 100 µM (inactive) | 65.6 µM (inactive) | > 100 µM (inactive) | > 100 µM (inactive) | > 100 µM (inactive) | > 100 µM (inactive) | > 100 | > 100 µM (inactive) | 2.75 µM (inactive) | > 100 µM (inactive) | > 100 µM (inactive) | – | – | – |
